Data: patent US8883841B2, “Oncogenic ras-specific cytotoxic compound and methods of use thereof” (The Board of Regents of the University of Texas System, priority 2005, dated 2014)
Read-outs that look alike come from different tables or passages of the source.

Legend:
[1] = In vivo toxicity assay in tumor-bearing nude mice; details: for serum ALT, AST, and creatinine levels: 2 days after the last treatment; for histopathologic examination of organs: lung, heart, stomach, small intestine, liver, spleen, pancreas, kidney; for blood cell counts: red blood cells, white blood cells, platelets; for body weights: vs solvent
Ovcar443 = assay: Cell viability, Ovcar443 ovary cancer cells; type: cell-based
H460 cells = details: for IC50 in H460 cells: Table 1, value is the negative log10 of mol/L
Hey = assay: Cell viability, Hey ovary cancer cells; type: cell-based
SR = assay: NCI in-vitro testing, SR (Leukemia); type: cell-based
LOX IMVI = assay: NCI in-vitro testing, LOX IMVI (Melanoma)
A498 = assay: NCI in-vitro testing, A498 (Renal Cancer)
UO-31 = assay: NCI in-vitro testing, UO-31 (Renal Cancer)
CCRF-CEM = assay: NCI in-vitro testing, CCRF-CEM (Leukemia)
HOP-62 = assay: NCI in-vitro testing, HOP-62 (Non-Small Cell Lung Cancer)
NCI-H23 = assay: NCI in-vitro testing, NCI-H23 (Non-Small Cell Lung Cancer)
K-562 = assay: NCI in-vitro testing, K-562 (Leukemia)
TK-10 = assay: NCI in-vitro testing, TK-10 (Renal Cancer)
U251 = assay: NCI in-vitro testing, U251 (CNS Cancer)
SK-MEL-2 = assay: NCI in-vitro testing, SK-MEL-2 (Melanoma)
OVCAR-5 = assay: NCI in-vitro testing, OVCAR-5 (Ovarian Cancer)
[2] = test system: panel of 60 cancer cell lines; assay: NCI Developmental Therapeutics Program in-vitro testing, panel of 60 cancer cell lines (whole panel); type: cell-based; details: leukemia, non small lung, colon, melanoma, ovarian, renal, breast
NCI/ADR-RES = assay: NCI in-vitro testing, NCI/ADR-RES (Breast Cancer)

SMILES: O=Cc1cn(Cc2ccc(Cl)cc2)c2ccccc12 [Oncrasin K001, 1H-Indole-3-carboxaldehyde, 1-[(4-chlorophenyl)methyl]-(9CI)]
- serum ALT, AST, and creatinine levels [1]: within the normal range
- histopathologic examination of organs [1]: no significant lesions
- blood cell counts [1]: all in the normal ranges
- body weights [1]: No difference
- IC50 (−LogM) (Ovcar443): 4.5 −LogM
- IC50 (−LogM) (H460 cells; H460, Lung): 6.6 −LogM
- concentration that effectively kills H460 cells (H460 cells; K-ras mutant lung cancer cells): 1 µM
- IC50 in H460 cells (H460 cells): 6.6
- effect on H460 cells (H460 cells; lung cancer cell line): highly effective
- IC50 (H460 cells; read-out: IC50, H460 cells, K-Ras Q61H): 250 nM
- IC50 (−LogM) (Hey): 4.6 −LogM

SMILES: O=Cc1cn(Cc2cccc(Cl)c2)c2ccccc12 [Oncrasin K027, 1-(3-chlorobenzyl)-1H-indole-3-carbaldehyde]
- TGI (SR): 4.26E−8 Molar
- GI50 (SR; Homo sapiens): < 10 nM
- Percent Growth (SR; Log10 Concentration −4.0 Molar): −71%
- Percent Growth (SR; Log10 Concentration −5.0 Molar): −18%
- Percent Growth (SR; Log10 Concentration −6.0 Molar): −71%
- Percent Growth (SR; Log10 Concentration −7.0 Molar): −25%
- Percent Growth (SR; Log10 Concentration −8.0 Molar): 43%
- TGI (LOX IMVI): 1.68E−5 Molar
- GI50 (LOX IMVI; Homo sapiens): 44.8 nM
- CC50 (LOX IMVI; Homo sapiens, read-out: LC50): 47200 nM
- Percent Growth (LOX IMVI; Log10 Concentration −4.0 Molar): −86%
- Percent Growth (LOX IMVI; Log10 Concentration −5.0 Molar): 25%
- Percent Growth (LOX IMVI; Log10 Concentration −6.0 Molar): 96%
- Percent Growth (LOX IMVI; Log10 Concentration −7.0 Molar): 95%
- Percent Growth (LOX IMVI; Log10 Concentration −8.0 Molar): 102%
- TGI (A498; A498): 3.33E−8 Molar
- Percent Growth (A498; A498, Log10 Concentration −4.0 Molar): −94%
- Percent Growth (A498; A498, Log10 Concentration −5.0 Molar): −95%
- Percent Growth (A498; A498, Log10 Concentration −6.0 Molar): −87%
- Percent Growth (A498; A498, Log10 Concentration −7.0 Molar): −66%
- Percent Growth (A498; A498, Log10 Concentration −8.0 Molar): 61%
- GI50 (A498; Homo sapiens, A498): 12.4 nM
- CC50 (A498; Homo sapiens, A498, read-out: LC50): 89 nM
- GI50 (UO-31; Homo sapiens, UO-31): 1580 nM
- CC50 (UO-31; Homo sapiens, UO-31, read-out: LC50): > 100000 nM
- TGI (UO-31; UO-31): 1.55E−6 Molar
- Percent Growth (UO-31; UO-31, Log10 Concentration −4.0 Molar): −42%
- Percent Growth (UO-31; UO-31, Log10 Concentration −5.0 Molar): 10%
- Percent Growth (UO-31; UO-31, Log10 Concentration −6.0 Molar): 50%
- Percent Growth (UO-31; UO-31, Log10 Concentration −7.0 Molar): 80%
- Percent Growth (UO-31; UO-31, Log10 Concentration −8.0 Molar): 90%
- GI50 (CCRF-CEM; Homo sapiens): 1740 nM
- CC50 (CCRF-CEM; Homo sapiens, read-out: LC50): 14800 nM
- Percent Growth (CCRF-CEM; Log10 Concentration −4.0 Molar): −67%
- Percent Growth (CCRF-CEM; Log10 Concentration −5.0 Molar): −47%
- Percent Growth (CCRF-CEM; Log10 Concentration −6.0 Molar): 87%
- Percent Growth (CCRF-CEM; Log10 Concentration −7.0 Molar): 97%
- Percent Growth (CCRF-CEM; Log10 Concentration −8.0 Molar): 100%
- serum ALT, AST, and creatinine levels [1]: within the normal range
- histopathologic examination of organs [1]: no significant lesions
- blood cell counts [1]: all in the normal ranges
- body weights [1]: No difference
- TGI (HOP-62; HOP-62): 1.93E−5 Molar
- Percent Growth (HOP-62; HOP-62, Log10 Concentration −4.0 Molar): −37%
- Percent Growth (HOP-62; HOP-62, Log10 Concentration −5.0 Molar): 15%
- Percent Growth (HOP-62; HOP-62, Log10 Concentration −6.0 Molar): 35%
- Percent Growth (HOP-62; HOP-62, Log10 Concentration −7.0 Molar): 87%
- Percent Growth (HOP-62; HOP-62, Log10 Concentration −8.0 Molar): 91%
- GI50 (HOP-62; Homo sapiens, HOP-62): 350 nM
- CC50 (HOP-62; Homo sapiens, HOP-62, read-out: LC50): > 100000 nM
- GI50 (NCI-H23; Homo sapiens, NCI-H23): 2900 nM
- CC50 (NCI-H23; Homo sapiens, NCI-H23, read-out: LC50): 71100 nM
- TGI (NCI-H23; NCI-H23): 2.10E−5 Molar
- Percent Growth (NCI-H23; NCI-H23, Log10 Concentration −4.0 Molar): −54%
- Percent Growth (NCI-H23; NCI-H23, Log10 Concentration −5.0 Molar): 31%
- Percent Growth (NCI-H23; NCI-H23, Log10 Concentration −6.0 Molar): 57%
- Percent Growth (NCI-H23; NCI-H23, Log10 Concentration −7.0 Molar): 82%
- Percent Growth (NCI-H23; NCI-H23, Log10 Concentration −8.0 Molar): 94%
- GI50 (K-562; Homo sapiens, K562): 19.2 nM
- CC50 (K-562; Homo sapiens, K562, read-out: LC50): 54500 nM
- TGI (K-562; K-562): 1.26E−5 Molar
- Percent Growth (K-562; K-562, Log10 Concentration −4.0 Molar): −71%
- Percent Growth (K-562; K-562, Log10 Concentration −5.0 Molar): 8%
- Percent Growth (K-562; K-562, Log10 Concentration −6.0 Molar): 87%
- Percent Growth (K-562; K-562, Log10 Concentration −7.0 Molar): 100%
- Percent Growth (K-562; K-562, Log10 Concentration −8.0 Molar): 114%
- IC50 in H460 cells (H460 cells; listed as K27): 7
- IC50 in H460 cells (H460 cells): 8.43
- GI50 (TK-10; Homo sapiens, TK-10): 15.3 nM
- CC50 (TK-10; Homo sapiens, TK-10, read-out: LC50): > 100000 nM
- TGI (TK-10; TK-10): 8.84E−8 Molar
- Percent Growth (TK-10; TK-10, Log10 Concentration −4.0 Molar): −16%
- Percent Growth (TK-10; TK-10, Log10 Concentration −5.0 Molar): −8%
- Percent Growth (TK-10; TK-10, Log10 Concentration −6.0 Molar): −10%
- Percent Growth (TK-10; TK-10, Log10 Concentration −7.0 Molar): −3%
- Percent Growth (TK-10; TK-10, Log10 Concentration −8.0 Molar): 62%
- GI50 (U251; Homo sapiens, U-251): 2460 nM
- CC50 (U251; Homo sapiens, U-251, read-out: LC50): > 100000 nM
- TGI (U251; U251): 2.53E−5 Molar
- Percent Growth (U251; U251, Log10 Concentration −4.0 Molar): −35%
- Percent Growth (U251; U251, Log10 Concentration −5.0 Molar): 25%
- Percent Growth (U251; U251, Log10 Concentration −6.0 Molar): 56%
- Percent Growth (U251; U251, Log10 Concentration −7.0 Molar): 84%
- Percent Growth (U251; U251, Log10 Concentration −8.0 Molar): 93%
- GI50 (SK-MEL-2; Homo sapiens, SK-MEL-2): 15800 nM
- CC50 (SK-MEL-2; Homo sapiens, SK-MEL-2, read-out: LC50): 48200 nM
- TGI (SK-MEL-2; SK-MEL-2): 5.94E−8 Molar
- Percent Growth (SK-MEL-2; SK-MEL-2, Log10 Concentration −4.0 Molar): −64%
- Percent Growth (SK-MEL-2; SK-MEL-2, Log10 Concentration −5.0 Molar): −20%
- Percent Growth (SK-MEL-2; SK-MEL-2, Log10 Concentration −6.0 Molar): 67%
- Percent Growth (SK-MEL-2; SK-MEL-2, Log10 Concentration −7.0 Molar): 84%
- Percent Growth (SK-MEL-2; SK-MEL-2, Log10 Concentration −8.0 Molar): 98%
- GI50 (OVCAR-5; Homo sapiens, OVCAR-5): < 10 nM
- CC50 (OVCAR-5; Homo sapiens, OVCAR-5, read-out: LC50): > 100000 nM
- TGI (OVCAR-5; OVCAR-5): 3.72E−7 Molar
- Percent Growth (OVCAR-5; OVCAR-5, Log10 Concentration −4.0 Molar): −50%
- Percent Growth (OVCAR-5; OVCAR-5, Log10 Concentration −5.0 Molar): −23%
- Percent Growth (OVCAR-5; OVCAR-5, Log10 Concentration −6.0 Molar): −7%
- Percent Growth (OVCAR-5; OVCAR-5, Log10 Concentration −7.0 Molar): 10%
- Percent Growth (OVCAR-5; OVCAR-5, Log10 Concentration −8.0 Molar): 43%
- anticancer spectrum in NCI panel [2]: active in a number of cancer cell lines
- TGI (NCI/ADR-RES): 3.32E−6 Molar
- GI50 (NCI/ADR-RES; Homo sapiens): 9220 nM
- CC50 (NCI/ADR-RES; Homo sapiens, read-out: LC50): > 100000 nM
- Percent Growth (NCI/ADR-RES; Log10 Concentration −4.0 Molar): −45%
- Percent Growth (NCI/ADR-RES; Log10 Concentration −5.0 Molar): 48%
- Percent Growth (NCI/ADR-RES; Log10 Concentration −6.0 Molar): 85%
- Percent Growth (NCI/ADR-RES; Log10 Concentration −7.0 Molar): 94%
- Percent Growth (NCI/ADR-RES; Log10 Concentration −8.0 Molar): 103%
